Measurements: patent publication US20250215006A1, “TRICYCLIC COMPOUNDS AS INHIBITORS OF WRN” (Incyte Corporation, priority 2023, published 2025)

What was measured:
WRN [1] = molecular target: T1, WRN (Homo sapiens, UniProt Q14191); test: WRN Helicase activity assay (fluorescence DNA unwinding); format: biochemical; conditions: 1-hr pre-incubation with enzyme; 100 μM ATP, 25 nM forked dsDNA, 1 nM WRN; geometric mean of at least 2 replicates
T1 construct: A His-tagged construct of WRN (AA S2-S1235) was produced and used for the ATPase assay; His; made in house; host or cells: Sf9 insect cells (baculovirus, pFastBac1)
Method: Compounds of the examples were tested for WRN helicase activity. DNA encoding the target protein, 6×HIS-TEV-WRN-517-945, was produced, cloned and transfected as detailed in Example D. To determine the inhibitory properties of the compounds, a 384 wells plate-based Helicase assay was set up to measure the extent of DNA unwinding (Helicase) activity of WRN. The WRN Helicase assay was designed to measure increase in fluorescence signal using a fluorescence based, donor-quencher paired forked dsDNA oligomer substrate (custom synthesis from Sigma-Aldrich) prepared by annealing equal amounts of oligo GPat-1 ([BHQ2][…]) and oligo GPat-2 ([…][TAM]). Continuous measurement of fluorescent signal was used to optimize the buffer conditions, concentration of enzyme (WRN), concentration of substrates (ATP & dsDNA), and the linearity of the Helicase reaction. All solutions were prepared in the following assay buffer: 50 mM Tris-HCl, pH-7.5, 2 mM MgCl2, 50 mM NaCl, 1 mM EGTA, 0.01% P-20, 0.05% BSA, and 2 mM DTT prepared with nuclease free water.
A serial dilution (1:3 scheme) of the compounds was prepared in neat DMSO and 100 nL of the compounds was dispensed in the Greiner black low volume (Greiner #784076) 384 wells assay plate. An 1-hr pre-incubation of the compounds with enzyme was included. A His-tagged construct of WRN (AA S2-S1235) was produced and used for the ATPase assay. Maximum inhibition control wells were set up with the addition of only assay buffer, and no inhibition control wells were set up with neat DMSO without test compounds. The reaction was initiated by addition of 5 μL substrate mix (200 μM ultrapure ATP, and 50 nM dsDNA prepared in assay buffer) and incubated at 25° C. for 35 min. A typical Helicase reaction consists of 25 nM forked dsDNA, 100 μM ATP, and 1 nM WRN prepared in assay buffer. The WRN Helicase reaction was quenched by the addition of 5 μL ‘STOP’ solution containing 100 mM EDTA (final EDTA concentration 33.33 mM) prepared in assay buffer. The plates were read on BMG PHERAstar FSX using 540/590 module to measure an increase of fluorescence. Data analysis was carried out using the Genedata software following % of control normalization. Fitting parameters include dose response IC50, Hill slope (n), maximum inhibition (S∞), and minimum inhibition (S0). The reported IC50 values for compounds in this invention are the geometric means of at least 2 independent replicates.

WRN [2] = molecular target: T1, WRN; test: WRN ATPase activity assay (ADP-Glo); format: biochemical; conditions: 1-hr pre-incubation with enzyme; 100 μM ATP, 25 nM forked dsDNA, 1 nM WRN; geometric mean of at least 2 replicates
Method: Compounds of the Examples were tested for WRN ATPase activity. WRN ATPase activity catalyzes ATP hydrolysis to produce ADP and phosphate. DNA encoding the target protein, 6×HIS-TEV-WRN-517-945, was produced, cloned and transfected as detailed in Example D. The amount of ADP produced was measured using ADP-Glo™ Kinase Assay kit from Promega Corporation in a Greiner white regular volume 384 wells assay plate (Greiner #781075). Data was normalized to a standard curve generated using various ADP concentrations and the corresponding luminescent signal intensities at each concentration. The assay conditions were optimized for enzyme concentration (WRN), substrate concentrations (ATP & dsDNA), and the linearity of the ATPase reaction, in the following assay buffer: 50 mM Tris-HCl, pH-7.5, 2 mM MgCl2, 50 mM NaCl, 1 mM EGTA, 0.01% P-20, 0.05% BSA, and 2 mM DTT prepared with nuclease free water.
A serial dilution (1:3 scheme) of the compounds were prepared in neat DMSO, with 100 nL of the compounds dispensed in the 384 wells assay plate. An 1-hr pre-incubation of the compounds with enzyme was included. A His-tagged construct of WRN (AA S2-S1235) was produced and used for the ATPase assay. Maximum inhibition control wells were set up with the addition of only assay buffer, and no inhibition control wells were set up with neat DMSO without test compounds. The reaction was initiated by addition of 5 μL substrate mix (200 μM ultrapure ATP, and 50 nM dsDNA prepared in assay buffer) and incubated at 25° C. for 35 min. A forked dsDNA oligomer substrate was prepared by annealing equal amounts of oligo GPat-1 ([BHQ2][…]) and oligo GPat-2 ([…][TAM]) and was used as dsDNA substrate for WRN ATPase assay. A typical ATPase reaction consists of 25 nM forked dsDNA, 100 μM ATP, and 1 nM WRN prepared in assay buffer. The WRN ATPase reaction was stopped by the addition of 5 μL of ADP-Glo Reagent from ADP-Glo™ Kinase Assay kit and incubated for 40 min to deplete the unreacted ATP. Afterwards, 5 μL of Kinase Detection Reagent from the ADP-Glo™ Kinase Assay kit was added and incubated for 1 hr for the development of luminescence signal.
Luminesce signals were measured on BMG PHERAstar FSX using luminescence protocol. Data analysis was carried out using Genedata software following % of control normalization. Fitting parameters include dose response IC50, Hill slope (n), maximum inhibition (S∞), and minimum inhibition (S0). The reported IC50 values for compounds in this invention are the geometric means of at least 2 independent replicates.

T1 sequence (Q14191 2-1235): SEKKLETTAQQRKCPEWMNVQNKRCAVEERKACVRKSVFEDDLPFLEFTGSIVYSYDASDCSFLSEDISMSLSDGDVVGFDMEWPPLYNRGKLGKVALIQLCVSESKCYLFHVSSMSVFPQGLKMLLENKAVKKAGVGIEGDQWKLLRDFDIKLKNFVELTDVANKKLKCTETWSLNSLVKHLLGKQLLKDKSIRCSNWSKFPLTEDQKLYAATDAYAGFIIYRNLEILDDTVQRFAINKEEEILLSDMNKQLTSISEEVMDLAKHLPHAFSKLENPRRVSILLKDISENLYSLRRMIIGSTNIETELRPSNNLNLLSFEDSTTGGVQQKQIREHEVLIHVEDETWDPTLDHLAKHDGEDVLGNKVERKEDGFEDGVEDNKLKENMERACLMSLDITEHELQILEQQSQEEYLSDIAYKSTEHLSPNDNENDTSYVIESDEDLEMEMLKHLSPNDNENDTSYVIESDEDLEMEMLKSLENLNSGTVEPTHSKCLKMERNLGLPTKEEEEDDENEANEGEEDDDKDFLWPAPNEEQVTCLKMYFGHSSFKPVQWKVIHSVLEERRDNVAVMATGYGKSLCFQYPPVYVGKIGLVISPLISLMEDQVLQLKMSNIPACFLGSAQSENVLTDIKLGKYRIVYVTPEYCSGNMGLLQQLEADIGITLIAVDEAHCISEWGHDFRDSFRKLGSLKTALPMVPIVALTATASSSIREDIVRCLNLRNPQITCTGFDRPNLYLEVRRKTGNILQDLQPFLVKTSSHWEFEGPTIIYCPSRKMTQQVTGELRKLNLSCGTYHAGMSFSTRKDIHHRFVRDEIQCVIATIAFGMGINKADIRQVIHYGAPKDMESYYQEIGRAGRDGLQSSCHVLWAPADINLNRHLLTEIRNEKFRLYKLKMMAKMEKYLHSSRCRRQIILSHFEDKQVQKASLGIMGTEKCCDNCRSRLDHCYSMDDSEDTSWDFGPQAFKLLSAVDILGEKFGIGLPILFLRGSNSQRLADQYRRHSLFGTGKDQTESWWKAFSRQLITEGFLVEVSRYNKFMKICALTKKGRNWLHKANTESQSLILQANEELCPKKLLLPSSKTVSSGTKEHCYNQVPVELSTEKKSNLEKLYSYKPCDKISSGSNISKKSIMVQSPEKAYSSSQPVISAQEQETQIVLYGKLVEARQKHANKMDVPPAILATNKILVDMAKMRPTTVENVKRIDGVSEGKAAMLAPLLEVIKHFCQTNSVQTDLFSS

| Compound | IC50 (WRN [1]) | IC50 (WRN [2]) |
| --- | --- | --- |
| C=CC(=O)Nc1ccccc1-c1c(CC)nc2n(CC(=O)Nc3ccc(F)c(F)c3)c3cc(OC)ccc3n2c1=O [Example 17, N-(2-(10-(2-((3,4-Difluorophenyl)amino)-2-oxoethyl)-2-ethyl-8-methoxy-4-oxo-4,10-dihydrobenzo[4,5]imidazo[1,2-a]pyrimidin-3-yl)phenyl)acrylamide] | 100 to 500 nM | 100 to 500 nM |
| C=CC(=O)Nc1ccccc1-c1c(CC)nc2n(CC(=O)Nc3ccc(F)cc3)c3cc(C)c(C)cc3n2c1=O [Example 18, N-(2-(2-Ethyl-10-(2-((4-fluorophenyl)amino)-2-oxoethyl)-7,8-dimethyl-4-oxo-4,10-dihydrobenzo[4,5]imidazo[1,2-a]pyrimidin-3-yl)phenyl)acrylamide] | 5000 to 20000 nM | 1000 to 5000 nM |
| C=CC(=O)Nc1ccccc1-c1c(CC)nc2n(CC(=O)Nc3ccc(C(F)(F)F)cc3)c3ncccc3n2c1=O [Example 20, N-(2-(8-Ethyl-6-oxo-10-(2-oxo-2-((4-(trifluoromethyl)phenyl)amino)ethyl)-6,10-dihydropyrido[2′,3′: 4,5]imidazo[1,2-a]pyrimidin-7-yl)phenyl)acrylamide] | 100 to 500 nM | 100 to 500 nM |
| C=CS(=O)(=O)Nc1ccccc1-c1c(CC)c(C#N)c2n(CC(=O)Nc3ccc(C(F)(F)F)cc3)c3ccccc3n2c1=O [Example 24, 2-(4-Cyano-3-ethyl-1-oxo-2-(2-(vinylsulfonamido)phenyl)benzo[4,5]imidazo[1,2-a]pyridin-5(1H)-yl)-N-(4-(trifluoromethyl)phenyl)acetamide] | 100 to 500 nM | 100 to 500 nM |
| C=CC(=O)Nc1ccccc1-c1c(CC)c(C#N)c2n(CC(=O)Nc3ccc(C(F)(F)F)cc3)c3ccccc3n2c1=O [Example 25, N-(2-(4-Cyano-3-ethyl-1-oxo-5-(2-oxo-2-((4-(trifluoromethyl)phenyl)amino)ethyl)-1,5-dihydrobenzo[4,5]imidazo[1,2-a]pyridin-2-yl)phenyl)acrylamide] | 100 to 500 nM | 100 to 500 nM |
| C=CC(=O)Nc1ccccc1-c1c(CC)cc2n(CC(=O)Nc3ccc(C(F)(F)F)cc3)c3ccccc3n2c1=O [Example 26, N-(2-(3-Ethyl-1-oxo-5-(2-oxo-2-((4-(trifluoromethyl)phenyl)amino)ethyl)-1,5-dihydrobenzo[4,5]imidazo[1,2-a]pyridin-2-yl)phenyl)acrylamide] | < 100 nM | 100 to 500 nM |

Now from value to compound:

| IC50 (WRN [1]) | IC50 (WRN [2]) | Compound |
| --- | --- | --- |
| < 100 nM | < 100 nM | C=CC(=O)Nc1ccccc1-c1c(CC)nc2n(CC(=O)Nc3ccc(C(F)(F)F)cc3)c3c(OC)cccc3n2c1=O [Example 19, N-(2-(2-Ethyl-9-methoxy-4-oxo-10-(2-oxo-2-((4-(trifluoromethyl)phenyl)amino)ethyl)-4,10-dihydrobenzo[4,5]imidazo[1,2-a]pyrimidin-3-yl)phenyl)acrylamide] |
| < 100 nM | < 100 nM | C=CS(=O)(=O)Nc1ccccc1-c1c(CC)nc2n(CC(=O)Nc3ccc(C(F)(F)F)cc3)c3ccccc3n2c1=O [Example 21, 2-(2-Ethyl-4-oxo-3-(2-(vinylsulfonamido)phenyl)benzo[4,5]imidazo[1,2-a]pyrimidin-10(4H)-yl)-N-(4-(trifluoromethyl)phenyl)acetamide] |
| < 100 nM | < 100 nM | C=CC(=O)Nc1ccccc1-c1c(CC)nc2n(CC(=O)Nc3ccc(C(F)(F)F)cc3)c3c(n2c1=O)CCCC3 [Example 22, N-(2-(2-ethyl-4-oxo-10-(2-oxo-2-((4-(trifluoromethyl)phenyl)amino)ethyl)-4,6,7,8,9,10-hexahydrobenzo[4,5]imidazo[1,2-a]pyrimidin-3-yl)phenyl)acrylamide] |
| < 100 nM | < 100 nM | C=CS(=O)(=O)Nc1ccccc1-c1c(CC)nc2n(CC(=O)Nc3ccc(C(F)(F)F)cc3)c3c(n2c1=O)CCCC3 [Example 23, 2-(2-Ethyl-4-oxo-3-(2-(vinylsulfonamido)phenyl)-6,7,8,9-tetrahydrobenzo[4,5]imidazo[1,2-a]pyrimidin-10(4H)-yl)-N-(4-(trifluoromethyl)phenyl)acetamide] |
